Measurements from patent publication US20100167956A1, “DNA CHIP FOR DETECTION OF ESCHERICHIA COLI” (MEDIGENES CO., LTD., priority 2007, published 2010).
≈ marks a conversion by molar mass, not a printed value.

Experiments:
E. coli (ATCC 25922) [1] = experiment: MIC (minimal inhibitory concentration) test, standard dilution method; assay type: cell-based; details: Escherichia coli, ATCC25922; E. coli ATCC 25922, standard dilution method
Source text: For the strain, E. coli (ATCC 25922) was used, and for the antibiotic, Ceftriaxone (CJ, Seoul, Korea), to which E. coli has not developed resistance, was used for the sensitivity test.
First, each strain activated by two subcultures was used to estimate the antibiotic sensitivity by MIC (minimal inhibitory concentration) test. For the MIC test, a standard dilution method (Performance Standards for Antimicrobial Susceptibility Testing; Fifteenth Informational Supplement, Clinical and Laboratory Standard Institute, M100-S15, Vol. 25, No. 1, 2005) was used according to CLIS (The Clinical and Laboratory Standards Institute) guidelines.

E. coli (ATCC 25922) [2] = experiment: Plate count of E. coli in antibiotic-treated cultures; details: 1st-3rd experiment

- MIC (E. coli (ATCC 25922) [1]): 0.12 µg/mL (≈ 0.216 µM)
SMILES: CO/N=C(\C(=O)N[C@@H]1C(=O)N2C(C(=O)O)=C(CSc3nc(=O)c(=O)[nH]n3C)CS[C@H]12)c1csc(N)n1 [Ceftriaxone]
- CFU (number of bacteria, plate count) (E. coli (ATCC 25922) [2]; EC-1-04: 1 MIC antibiotic, 4 hr): 0 CFU
- CFU (number of bacteria, plate count) (E. coli (ATCC 25922) [2]; EC-1-06: 1 MIC antibiotic, 6 hr): 0 CFU
- CFU (number of bacteria, plate count) (E. coli (ATCC 25922) [2]; EC-1-12: 1 MIC antibiotic, 12 hr): 0 CFU
- CFU (number of bacteria, plate count) (E. coli (ATCC 25922) [2]; EC-1-24: 1 MIC antibiotic, 24 hr): 0 CFU
- CFU (number of bacteria, plate count) (E. coli (ATCC 25922) [2]; EC-2-02: 2 MIC antibiotic, 2 hr): 0 CFU
- CFU (number of bacteria, plate count) (E. coli (ATCC 25922) [2]; EC-2-04: 2 MIC antibiotic, 4 hr): 0 CFU
- CFU (number of bacteria, plate count) (E. coli (ATCC 25922) [2]; EC-2-06: 2 MIC antibiotic, 6 hr): 0 CFU
- CFU (number of bacteria, plate count) (E. coli (ATCC 25922) [2]; EC-2-12: 2 MIC antibiotic, 12 hr): 0 CFU
- CFU (number of bacteria, plate count) (E. coli (ATCC 25922) [2]; EC-2-24: 2 MIC antibiotic, 24 hr): 0 CFU
